Test results reported in patent EP0903346A1, “SYDNONE IMINE DERIVATIVES” (Chugai Seiyaku Kabushiki Kaisha, priority 1995, dated 1997).

Each compound was assayed on isolated rat aorta (assay: Test with the use of isolated rat aorta (relaxation of potassium chloride contraction)). Conditions: read-out: Rat aorta IC50.
Protocol: The thoracic aorta was taken out from male Sprague Dawley rats weighing 450 to 600 g and cut into circular samples of 2 mm in width. […] The contraction reactions of the samples were isometrically recorded with FD pick-up. After 1 to 1.5 hours of equilibration, 30 mM potassium chloride was added to contract the tissue. […] As the test compounds, the invention compounds obtained in the above Examples were employed.

Row | SMILES | IC50 [nM]
1 | COc1cc(CC(=O)N2CCN([n+]3cc([N-]C(=O)CSC(C)=O)on3)CC2)cc(OC)c1OC [Example 40, N-((Acetylthio)acetyl)-3-(4-((3,4,5-trimethoxyphenyl)acetyl)piperazin-1-yl)sydnonimine] | 280

Same assay, conditions: relaxation of continuous contraction due to 30 mM potassium chloride, thoracic aorta of male Sprague Dawley rats, read-out: Rat aorta IC50

Row | SMILES | IC50 [nM]
2 | CC(=O)SC[C@@H](C)C(=O)[N-]c1c[n+](N2CCOCC2)no1 [Example 67, N-((S)-3-(Acetylthio)isobutyryl)-3-morpholinosydnonimine] | 540
3 | CC(=O)SCC(=O)N1CCN([n+]2cc([N-]C(=O)CSC(=O)c3ccccc3)on2)CC1 [Example 30-D, 3-(4-(Acetylthio)acetyl)piperazin-1-yl)-N-((benzoylthio)acetylsydnonimine] | 120
4 | COc1ccc(CN2CCN([n+]3cc([N-]C(=O)CSc4cc(C(C)(C)C)c(O)c(C(C)(C)C)c4)on3)CC2)cc1OC [Example 47, N-((3,5-Di-t-butyl-4-hydroxyphenylthio)acetyl)-3-(4-(3,4-dimethoxyphenylmethyl)piperazin-1-yl)sydnonimine] | 940
5 | COc1cc(CC(=O)N2CCN([n+]3cc([N-]C(=O)[C@H](C)CSC(C)=O)on3)CC2)cc(OC)c1OC [Example 25] | 630
6 | C[C@H](CSC(=O)c1ccccc1)C(=O)[N-]c1c[n+](N(C)C)no1 [Example 5, N-((S)-3-(Benzoylthio)isobutyryl)-3-dimethylaminosydnonimine] | 570
7 | COc1cc(CC(=O)N2CCN([n+]3cc([N-]C(=O)CSC(=O)c4ccccc4)on3)CC2)cc(OC)c1OC [Example 32] | 45
8 | COc1ccccc1N1CCN([n+]2cc([N-]C(=O)[C@H](C)CSC(=O)c3ccccc3)on2)CC1 [Example 11, N-((S)-3-(Benzoylthio)isobutyryl)-3-(4-(2-methoxyphenyl)piperazin-1-yl)sydnonimine] | 160
9 | CC(=O)SC[C@@H](C)C(=O)[N-]c1c[n+](N2CCN(C(=O)[C@H](C)CSC(=O)c3ccccc3)CC2)no1 [Example 29, N-((S)-3-(Acetylthio)isobutyryl)-3-(4-((S)-3-(benzoylthio)isobutyryl)piperazin-1-yl)sydnonimine] | 630
10 | C[C@H](CSC(=O)c1ccccc1)C(=O)[N-]c1c[n+](N2CCOCC2)no1 [Example 4, N-((S)-3-(Benzoylthio)isobutyryl)-3-morpholinosydnonimine] | 23
11 | CC(C)(C)c1cc(SCC(=O)N2CCN([n+]3cc([N-]C(=O)CSC(=O)c4ccccc4)on3)CC2)cc(C(C)(C)C)c1O [Example 33, N-((Benzoylthio)acetyl)-3-(4-(3,5-di-t-butyl-4-hydroxyphenylthio)acetylpiperazin-1-yl)sydnonimine] | 180

Further lines, results first:

Row | IC50 [nM] | SMILES
12 | 470 | CC(=O)SC[C@@H](C)C(=O)[N-]c1c[n+](N2CCN(C(=O)CSc3cc(C(C)(C)C)c(O)c(C(C)(C)C)c3)CC2)no1 [Example 24-D]
13 | 910 | COc1cc(CCN(C)[n+]2cc([N-]C(=O)[C@H](C)CSC(=O)c3ccccc3)on2)cc(OC)c1OC [Example 64, N-((S)-3-(Benzoylthio)isobutyryl)-3-(N'-(2-(3,4,5-trimethoxyphenyl)ethyl)-N'-methylamino)sydnonimine]
14 | 710 | CC(=O)SC[C@@H](C)C(=O)[N-]c1c[n+](N2CCN(C(=O)[C@@H]3CSC(=O)N3)CC2)no1 [Example 28, N-((S)-3-(Acetylthio)isobutyryl)-3-(4-((R)-2-oxo-4-thiazolidinecarbonyl)piperazin-1-yl)sydnonimine]
15 | 300 | COc1ccc(CN2CCN([n+]3cc([N-]C(=O)CSC(=O)c4ccccc4)on3)CC2)c(OC)c1OC [Example 51, N-((Benzoylthio)acetyl)-3-(4-(2,3,4-trimethoxyphenylmethyl)piperazin-1-yl)sydnonimine]
16 | 110 | COc1cc(CN2CCN([n+]3cc([N-]C(=O)CSC(C)=O)on3)CC2)cc(OC)c1OC [Example 48, N-((Acetylthio)acetyl)-3-(4-(3,4,5-trimethoxyphenylmethyl)piperazin-1-yl)sydnonimine]
17 | 420 | C[C@H](CSC(=O)c1ccccc1)C(=O)[N-]c1c[n+](N2CCN(CCSC(=O)c3ccccc3)CC2)no1 [Example 52-B, N-((S)-3-(Benzoylthio)isobutyryl)-3-(4-(2-(benzoylthio)ethyl)piperazin-1-yl)sydnonimine]
18 | 56 | CC1CCCC(C)N1[n+]1cc([N-]C(=O)CSC(=O)c2ccccc2)on1 (stereo not shown) [Example 16, N-((Benzoylthio)acetyl)-3-(2,6-dimethylpiperidin-1-yl)sydnonimine]
19 | 140 | COc1ccc(CN2CCN([n+]3cc([N-]C(=O)CSC(C)=O)on3)CC2)c(OC)c1OC [Example 50, N-((Acetylthio)acetyl)-3-(4-(2,3,4-trimethoxyphenylmethyl)piperazin-1-yl)sydnonimine]
